This note sets out measurements from patent EP4000617A1, “COMPOSITIONS FOR USE IN THE TREATMENT OF LEUKAEMIA” (Fundació Institut de Recerca Contra la Leucèmia Josep …, priority 2020, dated 2022).

For the assay, the system named is Luc-positive MonoMac-1 AML cells. Put plainly: Luc-positive MonoMac-1 AML xenograft in NSG mice, bioluminescence imaging. The class given is in vivo, NOD-scid IL2Rgamma null (NSG) mice. As to conditions: 10 mg/kg intraperitoneally on days 3, 4, 5, 6, 7, 10 and 11, at day 12, in comparison to the control.

For the substance “N,N-dimethyl 3-(10H-benz[b]indeno[2,1-d]thien-10-ylidene) -1-Propanamine [compound 87]”, the “amount of AML cells” value was “remarkable reduction”.
